For two compounds, KI results are on record in publication doi:10.1101/2022.04.02.486822v1 (biorxiv, 2022).

This assay has as its target T1, EcGhrA (Escherichia coli, UniProt P75913).
T1 sequence (P75913 1-312): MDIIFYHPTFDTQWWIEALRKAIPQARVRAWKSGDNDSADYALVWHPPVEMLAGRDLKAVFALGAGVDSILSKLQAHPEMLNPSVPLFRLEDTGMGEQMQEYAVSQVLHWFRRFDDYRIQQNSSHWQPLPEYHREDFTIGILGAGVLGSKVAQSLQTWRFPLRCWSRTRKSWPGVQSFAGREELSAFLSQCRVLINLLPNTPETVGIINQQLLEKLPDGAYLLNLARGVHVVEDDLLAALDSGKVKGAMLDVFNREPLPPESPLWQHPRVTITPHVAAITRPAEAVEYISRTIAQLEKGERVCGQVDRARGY
The assay is described as follows: NADPH oxidation at […] nm, substrate inhibition fit. The class given is biochemical. Conditions: 200 µM NADPH, 50 mM HEPES, pH 7.5, 22 °C.

The compound `O=CC(=O)O` [compound 6, glyoxylate] gave a KI of 1.5 ± 1.1 mM.

In turn, `O=C(O)CC(=O)C(=O)O` [compound 7, oxaloacetate] yielded a KI of 52 ± 15 mM.
